In PubChem BioAssay AID248 (DTP/NCI, 2004):
Where “and” joins values, the source holds several entries; their conditions need not be identical. Equal entries are not always repeated. Inconclusive results and toxic doses are left out.

System: L1210 leukemia ip in BDF1 mice, survival T/C
Test: NCI In Vivo Anticancer Drug Screen. Data for tumor model L1210 Leukemia (intraperitoneal) in B6D2F1 (BDF1) mice
Settings: endpoint: mean survival time, higher = longer survival
Summary of the method: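 Each compound was tested against a transplantable tumor grown in mice. The endpoint was survival, with treated animals benchmarked against vehicle controls as a simple ratio.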

[1] = dose: 100.0 mg/kg/injection, schedule: Q01DX009 (ip), vehicle: saline with Tween-80
[2] = dose: 100.0 mg/kg/injection, schedule: Q04DX003 (ip), vehicle: saline with Tween-80
[3] = dose: 200.0 mg/kg/injection, schedule: Q01DX009 (ip), vehicle: saline with Tween-80
[4] = dose: 200.0 mg/kg/injection, schedule: Q04DX003 (ip), vehicle: saline with Tween-80
[5] = dose: 400.0 mg/kg/injection, schedule: Q01DX009 (ip), vehicle: saline with Tween-80
[6] = dose: 400.0 mg/kg/injection, schedule: Q04DX003 (ip), vehicle: saline with Tween-80
[7] = dose: 100.0 mg/kg/injection, schedule: Q01DX009 (ip), vehicle: Klucel (hydroxypropylcellulose) (HPC)
[8] = dose: 100.0 mg/kg/injection, schedule: Q04DX003 (ip), vehicle: Klucel (hydroxypropylcellulose) (HPC)
[9] = dose: 200.0 mg/kg/injection, schedule: Q04DX003 (ip), vehicle: Klucel (hydroxypropylcellulose) (HPC)
[10] = dose: 400.0 mg/kg/injection, schedule: Q04DX003 (ip), vehicle: Klucel (hydroxypropylcellulose) (HPC)
[11] = dose: 20.0 mg/kg/injection, schedule: Q04DX003 (ip), vehicle: Klucel (hydroxypropylcellulose) (HPC)

## CCCCCCCCCCCCCCCC(=O)N(c1ccc(N)cc1)C(C)CCCN(CC)CC (stereo not drawn)
[1]
  T/C: 100 % of control
[2]
  T/C: 98 % of control
[3]
  T/C: 100 % of control
[4]
  T/C: 97 % of control
[5]
  T/C: 100 % of control
[6]
  T/C: 90 % of control

## COc1ccc(CC[n+]2cccc(C#N)c2)cc1OC
dose: 75.0 mg/kg/injection, schedule: Q01DX001 (ip), vehicle: carboxymethylcellulose (CMC)
  T/C: 105 % of control
dose: 150.0 mg/kg/injection, schedule: Q01DX001 (ip), vehicle: carboxymethylcellulose (CMC)
  T/C: 100 % of control

## COc1ccc2c(c1)CCC1C2CCC2(C)C(=O)C(SC3=NC=NC4=NC=NC43)CC12 (stereo not drawn)
dose: 100.0 mg/kg/injection, schedule: Q01DX001 (sc), vehicle: steriod suspending solution
  T/C: 97 % of control
dose: 200.0 mg/kg/injection, schedule: Q01DX001 (sc), vehicle: steriod suspending solution
  T/C: 96 % of control
dose: 400.0 mg/kg/injection, schedule: Q01DX001 (sc), vehicle: steriod suspending solution
  T/C: 111 % of control

## CCOCCOCCOC(C)Oc1ccc(C(=O)OC)cc1 (stereo not drawn)
dose: 100.0 mg/kg/injection, schedule: Q04DX002 (ip), vehicle: saline
  T/C: 99 % of control
dose: 200.0 mg/kg/injection, schedule: Q04DX002 (ip), vehicle: saline
  T/C: 96 % of control
dose: 400.0 mg/kg/injection, schedule: Q04DX002 (ip), vehicle: saline
  T/C: 89 % of control

## OC1(Cc2ccccc2)CCCCC1
dose: 100.0 mg/kg/injection, schedule: Q01DX001 (ip), vehicle: other
  T/C: 102 % of control
[2]
  T/C: 102 % of control
dose: 200.0 mg/kg/injection, schedule: Q01DX001 (ip), vehicle: other
  T/C: 110 % of control
[4]
  T/C: 104 % of control
dose: 400.0 mg/kg/injection, schedule: Q01DX001 (ip), vehicle: other
  T/C: 118 % of control
[6]
  T/C: 102 % of control

## CCOC(=O)c1cc(C)nc2ccc(Br)cc12
dose: 100.0 mg/kg/injection, schedule: Q04DX002 (ip), vehicle: saline with Tween-80
  T/C: 97 % of control
dose: 200.0 mg/kg/injection, schedule: Q04DX002 (ip), vehicle: saline with Tween-80
  T/C: 108 % of control
dose: 400.0 mg/kg/injection, schedule: Q04DX002 (ip), vehicle: saline with Tween-80
  T/C: 97 % of control

## CC(C)C(CN)(CCCN1CCCC1)c1cccc2ccccc12 (stereo not drawn)
[2]
  T/C: 102 % of control

## COc1cc(/C=c2\[nH]c(=O)/c(=C/c3cc(OC)c(OC)c(OC)c3)[nH]c2=O)cc(OC)c1OC
[7]
  T/C: 86 % of control
[8]
  T/C: 93 % of control
[9]
  T/C: 93 % of control
dose: 400.0 mg/kg/injection, schedule: Q01DX009 (ip), vehicle: Klucel (hydroxypropylcellulose) (HPC)
  T/C: 87 % of control
[10]
  T/C: 88 % of control

## NC(N)=N/N=C/c1ccccc1Cl
dose: 4.0 mg/kg/injection, schedule: Q01DX Z (ip), vehicle: saline
  T/C: 97 % of control
dose: 8.0 mg/kg/injection, schedule: Q01DX Z (ip), vehicle: saline
  T/C: 97 % of control
dose: 16.0 mg/kg/injection, schedule: Q01DX Z (ip), vehicle: saline
  T/C: 102 % of control

## COc1ccc(N)cc1OC
dose: 100.0 mg/kg/injection, schedule: Q04DX003 (ip), vehicle: saline
  T/C: 110 % of control
dose: 200.0 mg/kg/injection, schedule: Q04DX003 (ip), vehicle: saline
  T/C: 105 % of control
dose: 400.0 mg/kg/injection, schedule: Q04DX003 (ip), vehicle: saline
  T/C: 100 % of control

## O=CNC(Cc1ccccc1)Cc1ccccc1
dose: 5.0 mg/kg/injection, schedule: Q01DX009 (ip), vehicle: Klucel (hydroxypropylcellulose) (HPC)
  T/C: 98 % of control
dose: 5.0 mg/kg/injection, schedule: Q04DX003 (ip), vehicle: Klucel (hydroxypropylcellulose) (HPC)
  T/C: 103 % of control
dose: 10.0 mg/kg/injection, schedule: Q01DX009 (ip), vehicle: Klucel (hydroxypropylcellulose) (HPC)
  T/C: 102 % of control
dose: 10.0 mg/kg/injection, schedule: Q04DX003 (ip), vehicle: Klucel (hydroxypropylcellulose) (HPC)
  T/C: 103 % of control
dose: 20.0 mg/kg/injection, schedule: Q01DX009 (ip), vehicle: Klucel (hydroxypropylcellulose) (HPC)
  T/C: 102 % of control
[11]
  T/C: 102 % of control and 107 % of control

## [O-][n+]1c2ccccc2c(Oc2ccccc2)c2ccc3ccccc3c21
[2]
  T/C: 95 % of control
[6]
  T/C: 92 % of control

## Cc1cc(C)c(NC(=O)c2ccc(Cl)cc2Cl)c(C)c1
dose: 100.0 mg/kg/injection, schedule: Q04DX002 (ip), vehicle: Klucel (hydroxypropylcellulose) (HPC)
  T/C: 95 % of control
dose: 200.0 mg/kg/injection, schedule: Q04DX002 (ip), vehicle: Klucel (hydroxypropylcellulose) (HPC)
  T/C: 106 % of control
dose: 400.0 mg/kg/injection, schedule: Q04DX002 (ip), vehicle: Klucel (hydroxypropylcellulose) (HPC)
  T/C: 95 % of control

## CCOC(=O)C[n+]1ccccc1Br
dose: 50.0 mg/kg/injection, schedule: Q01DX015 (ip), vehicle: water
  T/C: 90 % of control
dose: 100.0 mg/kg/injection, schedule: Q01DX015 (ip), vehicle: water
  T/C: 100 % of control

## Cc1cccc(N=Cc2cccc([N+](=O)[O-])c2)c1
dose: 50.0 mg/kg/injection, schedule: Q04DX003 (ip), vehicle: Klucel (hydroxypropylcellulose) (HPC)
  T/C: 98 % of control
dose: 100.0 mg/kg/injection, schedule: Q01DX001 (ip), vehicle: Klucel (hydroxypropylcellulose) (HPC)
  T/C: 100 % of control
[8]
  T/C: 98 % of control
dose: 200.0 mg/kg/injection, schedule: Q01DX001 (ip), vehicle: Klucel (hydroxypropylcellulose) (HPC)
  T/C: 94 % of control
[9]
  T/C: 98 % of control
dose: 400.0 mg/kg/injection, schedule: Q01DX001 (ip), vehicle: Klucel (hydroxypropylcellulose) (HPC)
  T/C: 92 % of control

## CN(CCO)C(c1ccccc1)c1ccccc1
dose: 100.0 mg/kg/injection, schedule: Q01DX001 (ip), vehicle: saline
  T/C: 100 % of control
dose: 200.0 mg/kg/injection, schedule: Q01DX001 (ip), vehicle: saline
  T/C: 94 % of control
dose: 400.0 mg/kg/injection, schedule: Q01DX001 (ip), vehicle: saline
  T/C: 103 % of control

## CCCNC(=O)Nc1cccc(Cl)c1C
[1]
  T/C: 102 % of control
[2]
  T/C: 101 % of control
[3]
  T/C: 94 % of control
[4]
  T/C: 94 % of control
[5]
  T/C: 100 % of control
[6]
  T/C: 100 % of control

## CC(C)=CCN(CC=C(C)C)CCC(C#N)c1cccc2ccccc12 (stereo not drawn)
dose: 50.0 mg/kg/injection, schedule: Q01DX009 (ip), vehicle: Klucel (hydroxypropylcellulose) (HPC)
  T/C: 100 % of control
[7]
  T/C: 88 % of control
[8]
  T/C: 109 % of control
dose: 200.0 mg/kg/injection, schedule: Q01DX009 (ip), vehicle: Klucel (hydroxypropylcellulose) (HPC)
  T/C: 88 % of control
[9]
  T/C: 90 % of control
[10]
  T/C: 93 % of control

## CS(=O)(=O)OCCN(CCOS(C)(=O)=O)c1ccc(C=Nc2ccc(C(=O)O)cc2)cc1
dose: 2.5 mg/kg/injection, schedule: Q04DX003 (ip), vehicle: Klucel (hydroxypropylcellulose) (HPC)
  T/C: 114 % of control
[11]
  T/C: 170 % of control
dose: 40.0 mg/kg/injection, schedule: Q04DX003 (ip), vehicle: Klucel (hydroxypropylcellulose) (HPC)
  T/C: 112 % of control

## CCCCCCCCC/C(C)=N/NC(=O)c1ccc[n+](C)c1
dose: 50.0 mg/kg/injection, schedule: Q01DX009 (ip), vehicle: saline
  T/C: 93 % of control
dose: 100.0 mg/kg/injection, schedule: Q01DX009 (ip), vehicle: saline
  T/C: 93 % of control
dose: 200.0 mg/kg/injection, schedule: Q01DX009 (ip), vehicle: saline
  T/C: 96 % of control

## Nc1cc(Cl)c(Cl)c(Cl)c1
dose: 88.8 mg/kg/injection, schedule: Q01DX001 (ip), vehicle: carboxymethylcellulose (CMC)
  T/C: 97 % of control and 100 % of control
dose: 100.0 mg/kg/injection, schedule: Q01DX001 (ip), vehicle: carboxymethylcellulose (CMC)
  T/C: 91 % of control
dose: 133.4 mg/kg/injection, schedule: Q01DX001 (ip), vehicle: carboxymethylcellulose (CMC)
  T/C: 94 % of control and 100 % of control
dose: 300.0 mg/kg/injection, schedule: Q01DX001 (ip), vehicle: carboxymethylcellulose (CMC)
  T/C: 97 % of control and 91 % of control
dose: 400.0 mg/kg/injection, schedule: Q01DX001 (ip), vehicle: carboxymethylcellulose (CMC)
  T/C: 91 % of control

## O=C(Nc1ccc(S(=O)(=O)Nc2ccc(N=Nc3ccc(S(=O)(=O)Nc4nccs4)cc3)cc2)cc1)C(SC1=NC=NC2=NC=NC21)SC1=NC=NC2=NC=NC21 (stereo not drawn)
dose: 75.0 mg/kg/injection, schedule: Q04DX003 (ip), vehicle: saline
  T/C: 100 % of control
dose: 150.0 mg/kg/injection, schedule: Q04DX003 (ip), vehicle: saline
  T/C: 96 % of control
dose: 300.0 mg/kg/injection, schedule: Q04DX003 (ip), vehicle: saline
  T/C: 98 % of control
